# How the values were obtained:
# [1] = Content of tacrolimus solvable in liquefied hydrofluoroalkane; type: physicochemical; conditions: liquefied hydrofluoroalkane (HFA-134a, HFA-227)
# [2] = Adsorptivity of tacrolimus to resinous material constituting valve part (FIG. 3); type: physicochemical
# Description: FIG. 3 illustrates the adsorptivity of the active ingredient contained in the aerosol composition to each sample resinous material soaked in the aerosol composition.
# The axis of ordinates designates the ratio of (remaining) active ingredient in the aerosol composition to the initial active ingredient therein when the percentage of the initial active ingredient contained in the aerosol composition is 100%.
# The aerosol composition used in the test of FIG. 3 contains a 0.025 wt % macrolide compound. To be concrete, the aerosol composition is a solution that contains 2.5 mg tacrolimus serving as the active ingredient, 10 ml liquefied hydrofluoroalkane (HFA-134a) serving as the propellant, and a little amount of lubricant normally used for metered dose inhalation.
# In the test of FIG. 3, each of the sample resinous materials is formed into a circular shape having a 5 mm diameter (a 39 mm^2 surface area), similar to the form of first gasket 11. Each of the sample resinous materials is soaked in the aerosol composition solution under the condition of 75% relative humidity and 50° C. for a month. […]
compound,measurement,setting,value
C=CC[C@@H]1/C=C(\C)C[C@H](C)C[C@H](OC)[C@H]2O[C@@](O)(C(=O)C(=O)N3CCCC[C@H]3C(=O)O[C@H](/C(C)=C/[C@@H]3CC[C@@H](O)[C@H](OC)C3)[C@H](C)[C@@H](O)CC1=O)[C@H](C)C[C@@H]2OC [tacrolimus],content of the tacrolimus solvable in the liquefied hydrofluoroalkane,[1],not more than 0.15 wt %
polyethylene,ratio of (remaining) active ingredient in the aerosol composition to the initial active ingredient,[2],scarcely reduced
polypropylene,ratio of (remaining) active ingredient in the aerosol composition to the initial active ingredient,[2],scarcely reduced

# From patent US20060124903A1, “Aerosol preparation comprising sealed container and enclosed therein aerosol composition containing marcolide compound” (Astellas Pharma Inc., priority 2003, published 2006)
